The nature of data set [1]: Anticonvulsant effectiveness against maximal electroshock. In kind it is in vivo, adult albino male mice (Charles River strain). The conditions noted are these: for ED50: Mus musculus, at time of peak effect, limits in parentheses; for ED50 / Time of peak activity: oral, mice. The method, then: (§1) All tests, with the exceptions noted, were conducted on adult albino male mice (Charles River strain); the dosage consisted of the active agent suspended in 10% aqueous acacia and was administered orally unless otherwise indicated.
(§2) Anticonvulsant effectiveness of each agent against maximal electroshock was determined at the time of peak effect. The time of peak anticonvulsant activity was determined by administering dosages of various sizes to a group of animals and administering a maximal electroshock to the animals at intervals thereafter by supply 60 ma. current through a corneal electrode for 0.2 second. […] The time of peak effect thus determined was used for all subsequent tests of anticonvulsant activity on the same active agent.
The duration of the anticonvulsant effect against maximal electroshock was compared with that of phenobarbital sodium at a dosage level of 0.1 millimole/kg of each.
A general note: In the maximal electroshock model the usual endpoint is tonic extension of the hind limbs.

A short description of the next data set: Acute oral toxicity. Also noted: species or system adult albino male mice (Charles River strain). The conditions noted are these: mouse, in vivo. As to the method:
as §1
(§3) Acute oral toxicity and acute intraperitoneal toxicity were determined in the conventional manner. The results were expressed as LD50, the dose required to produce death in 50% of the animals treated, determined graphically, with the 95% limits shown in parentheses.

Data set [2] can be described thus: Anticonvulsant effectiveness against Metrazol. The class given is in vivo, adult albino male mice (Charles River strain). The conditions noted are these: oral, mice; for ED50: Mus musculus, Metrazol 106.25 mg/kg subcutaneously, limits in parentheses. The method, then:
as §1
(§4) Anticonvulsant effectiveness was determined against a convulsive dose of Metrazol (106.25 mg/kg) injected subcutaneously; the criterior for effectiveness was failure to show clonic convulsive seizures. Anticonvulsant activity was determined against a lethal dose of strychnine sulfate (1.5 mg/kg) injected subcutaneously; the criterion was failure to die, even though seizures appeared.

The conditions of data set [3]: reported in Doran, Medicinal Chemistry, 1959; cited from earlier work.
A short description of data set [4]: Acute intraperitoneal toxicity. The conditions noted are these: mouse, in vivo, ip, mice, 95% limits in parentheses. Set-up: species or system adult albino male mice (Charles River strain). As to the method:
as §1, §3

The nature of data set [5]: Neurological deficit (Swinyard et al. plus rotorod). Also noted: species or system adult albino male mice (Charles River strain). The conditions noted are these: mouse, in vivo; oral, mice; 95% limits in parentheses. As to the method: as §1
The dosage required to produce a neurological deficit was determined by the method of Swinyard et al., J. Pharmacol. Exptl. Therap. 106, 319 (1952) except that one additional test was employed: the ability of the animal to remain for at least one minute on a "rotorod", a horizontal rod rotated at 6 r.p.m. The results were expressed as TD50, the dose required to produce the effect, determined graphically, with 95% limits.
(In general: Falling from the rotarod earlier than controls is read as motor impairment.)

The nature of data set [6]: Anticonvulsant activity against strychnine. In kind it is in vivo, adult albino male mice (Charles River strain). The conditions noted are these: Mus musculus, po, read-out: Strychnine, ED50. The method, then: as §1, §4
The nature of data set [7]: Anticonvulsant activity against maximal electroshock in the rat. The class given is in vivo. The conditions noted are these: rat (Sprague Dawley Strain); limits in parentheses. As to the method: as §2
The nature of data set [8]: Hypnotic activity (loss of the righting reflex). The class given is in vivo, adult albino male mice (Charles River strain). The conditions noted are these: any dosage less than a lethal dose for compounds of the invention. The method, then:
as §1

The conditions of data set [9]: cited from earlier work.
The mark [10] stands for this setting: oral, mice, 95% limits in parentheses, read-out: LD50 (oral).
The mark [11] stands for this setting: 0.1 millimole/kg, maximal electroshock.

SMILES strings stand for the structures.

For `CCOCN1C(=O)N(COCC)C(=O)C(CC)(c2ccccc2)C1=O` [Example 5, 1,3-diethoxymethyl-5-ethyl-5-phenyl barbituric acid], the ED50 in data set [1] is less than 25 mg/kg. For the same molecule, the “Time of peak activity” value in [1] (maximal electroshock) was 11/2.

For `C=CCC1(C(C)CCC)C(=O)N(COCc2ccccc2)C(=O)N(COCc2ccccc2)C1=O` (stereo not drawn) [Example 12, 1,3-dibenzyloxymethyl-5-allyl-5-(2-pentyl) barbituric acid], the LD50 in the data set “Acute oral toxicity” (setting [10]) is greater than 1000 mg/kg. In data set [2], the ED50 is roughly 200 mg/kg.

As for `CCCCCCCCCCCCOCN1C(=O)N(COCCCCCCCCCCCC)C(=O)C(CC)(CC)C1=O` [Example 10, 1,3-di-n-dodecyloxymethyl-5,5-diethyl barbituric acid], the LD50 in the data set “Acute oral toxicity” (setting [10]) was greater than 1000 mg/kg. Besides, in data set [2], the ED50 was roughly 200 mg/kg.

For the molecule `CCC1(c2ccccc2)C(=O)N(COC)C(=O)N(COC)C1=O` [Example 1, 1,3-dimethoxymethyl-5-ethyl-5-phenyl barbituric acid], in data set [3], the hypnotic effect entry is “without effect”. Moreover, the LD50 in data set [4] was found to be 490 mg/kg; in the data set “Acute oral toxicity” (setting [10]) it was 470 mg/kg. The TD50 in [5] was determined as 47 mg/kg. Moreover, in data set [1] (0.1 millimole/kg), the “duration of protection against maximal electroshock at about the same level” value is reported as “more than eight”. Besides, the ED50 turned out to be 13.5 mg/kg in data set [1], 200 mg/kg in [6], 6.6 mg/kg in data set [7] and 47 mg/kg in [2]. For the same molecule, the “Time of peak activity” value in data set [1] (maximal electroshock) was 2 h. The “change in the ED50 to protect against maximal electroshock on repeated dosage” value in [1] (repeated daily dosage of the same animals for four days) was “no significant change”.

`C=CCC1(C(C)CCC)C(=O)N(COC)C(=O)N(COC)C1=O` (stereo not drawn) [Example 11, 1,3-dimethoxymethyl-5-allyl-5-(2-pentyl) barbituric acid]: in the data set “Acute oral toxicity” (setting [10]), the LD50 is greater than 500 mg/kg. The ED50 in data set [2] was roughly 100 mg/kg.

`CCC1(c2ccccc2)C(=O)NC(=O)NC1=O` [Phenobarbital, phenobarbital]: the “Hypnotic activity (loss of the righting reflex, onset of sleep)” value in data set [8] is “did exhibit hypnotic activity”. Moreover, the hypnotic activity entry in data set [9] (known property) was “exhibits hypnotic activity as well as anticonvulsant activity”. Besides, in data set [9] (long known, treatment of epilepsy), the anticonvulsant usefulness result was “useful as anticonvulsant agents in warm-blooded animals”.

As for `CCCCOCN1C(=O)N(COCCCC)C(=O)C(CC)(c2ccccc2)C1=O` [Example 4, 1,3-di-(n)-butoxymethyl-5-ethyl-5-phenyl barbituric acid], in the data set “Acute oral toxicity” (setting [10]), the 50% lethal dose (LD50) was greater than 500 mg/kg. In data set [1], the ED50 is less than 100 mg/kg.

Take `CCCCOCN1C(=O)NC(c2ccccc2)(c2ccccc2)C1=O` [Example 6, 3-(n)-butoxymethyl-5,5-diphenylhydantoin]: the LD50 in “Acute oral toxicity” (setting [10]) is greater than 500 mg/kg. Also, in [1], the ED50 is less than 25 mg/kg.

Regarding `CCC1(CC)C(=O)N(COC)C(=O)N(COC)C1=O` [Example 9, 1,3-dimethoxymethyl-5,5-diethyl-barbituric acid], the LD50 in data set [4] is roughly 1000 mg/kg; in “Acute oral toxicity” (setting [10]) it was greater than 1000 mg/kg. Further, in [2], the ED50 stood at 7 mg/kg. Besides, in [2] (reported with Metrazol result, test not stated), the “Time of peak activity” value was 1 h.

Take `O=C1NC(=O)C(c2ccccc2)(c2ccccc2)N1` [diphenylhydantoin]: in data set [9] (known property), the hypnotic activity result is reported as “not hypnotic”; the undesirable side effects entry is “hypertrophic gingivitis, megaloblastic anemia, toxic psychoses, and hirsutism”.

On to `CCC1(c2ccccc2)C(=O)NC(=O)NC1=O` [phenobarbital sodium, reference compound], for which, in data set [1] (setting [11]), the “time at which protection began to decrease” value is listed as “four” and the “time at which protection was nearly gone” value was “eight”. Further, the “onset of protection against maximal electroshock” value in data set [1] (0.1 millimole/kg, comparator) is “less than 0.5 hour”.

In the case of `CCCCCCCCCCCCOCN1C(=O)N(COCCCCCCCCCCCC)C(=O)C(CC)(c2ccccc2)C1=O` [Example 8, 1,3-dilauryloxymethyl-5-ethyl-5-phenyl barbituric acid], the LD50 in the data set “Acute oral toxicity” (setting [10]) was greater than 500 mg/kg. In addition, the ED50 in [1] was roughly 50 mg/kg. Also, the “Time of peak activity” value in data set [1] (maximal electroshock) worked out at 2 h.

For the molecule `COCN1C(=O)NC(c2ccccc2)(c2ccccc2)C1=O` [Example 2, 3-methoxymethyl-5,5-diphenylhydantoin], the LD50 in the data set “Acute oral toxicity” (route not stated with the value (oral unless otherwise indicated), read-out: LD50) is roughly 500 mg/kg. In addition, the ED50 in data set [1] was less than 25 mg/kg. In [1] (after ingestion), the “duration of anticonvulsant activity (maximal electroshock)” value is listed as “more than 2 hours” and the “onset of anticonvulsant activity (maximal electroshock)” value is “less than 0.5 hour”.

For orientation: ED50 means the dose at which the effect has come halfway, by size or by number of responders. Broadly, the LD50 is the dose expected to kill half of the subjects tested. As usually defined, the TD50 is the dose at which the toxic effect under study appears in half of the subjects.
